Reference: patent publication US12516043B2, “Stiripentol derivative and use thereof” (National University Corporation Okayama University, priority 2020, dated 2026)

Legend:
lactate dehydrogenase = settings: Non-Patent Literature 3; cited from earlier work
[1] = Solubility in lipid (choice of vehicle); format: physicochemical
[2] = Pharmacokinetic evaluation by oral administration to a mouse (HPLC/MS of blood plasma); format: in vivo, ICR mice; settings: 50 mg/kg oral, blood plasma thirty minutes later; for in vivo metabolic stability: HPLC (MS for No. 1)
Description: Pharmacokinetic evaluation (compounds Nos. 1, 2, 4 and 9, FIGS. 6 to 10) by oral administration to a mouse:
For pharmacokinetic study, 6-7 week-old ICR mice were used in experiments. […] A vehicle or each of the compounds (50 mg/kg) were respectively orally administered to a mouse by a disposable sonde. Thirty minutes later, each mouse was decapitated for sampling their blood. Heparin sodium (10 μg/mL) was added to the blood as an anticoagulant. After each blood sample was centrifuged for 15 minutes (1,000 g, 4° C.), the supernatant was obtained as a blood plasma. Subsequently, to extract a compound, ethyl acetate was added to the obtained blood plasma, air-dried with nitrogen gas, and dissolved again with acetonitrile. The sample pretreated in this manner was subjected to the following analysis (HPLC, MS). In performing the HPLC analysis, constituents of the blood plasma were separated by the HPLC system (manufactured by JASCO Corporation) using a C18 reverse-phase column, at a flow rate of 1.0 mL/min. For analysis of the compound No. 1, a mobile phase consisting of acetonitrile (80%) and water (20%) was used, whereas a mobile phase consisting of acetonitrile (70%) and water (30%) was used for analysis of Compounds No. 2, No. 4 and No. 9. Individual compounds were detected by a UV detector at 295 nm. The data were obtained/analyzed by a software, ChromNAV (manufactured by JASCO Corporation). To identify an unchanged compound within the blood plasma constituents, the compound itself was directly analyzed as a standard substance by HPLC and the retention times of these compounds were compared. In the MS analysis, LC-MS/MS system (Agilent 1200 HPLC-Chip and 6520 Accurate-Mass Q-TOF), manufactured by Agilent Technologies, was used. The pretreated sample was allowed to adsorb onto a C18 chip by use of a mobile phase consisting of acetonitrile (25%) and water (75%) containing formic acid (0.1%), and thereafter, the blood plasma constituents were separated by a mobile phase consisting of acetonitrile (60%) and water (40%) containing formic acid (0.1%). The MS spectrum of the blood plasma constituents separated was detected (obtained) by a mass spectrometer, and data was obtained/analyzed by a software, MassHunter Qualitative Analysis (Agilent Technologies).

[3] = tested on: epileptic seizures in hippocampal sclerosis model mouse; assay: Pharmacological effect evaluation using a hippocampal sclerosis model mouse; format: in vivo, ICR mice
Description: Pharmacological Effect Evaluation by Using a Hippocampal Sclerosis Model Mouse (Compound No. 2, FIG. 11):
Hippocampal sclerosis model mice for use in evaluating anti-epileptic action were prepared according to the literatures already published (Non-Patent Literatures 3 and 13). First, 6-7 week-old ICR mice were each anesthetized with a mixed solution of ketamine (100 mg/kg) and xylazine (40 mg/kg) and fixed to a stereotaxic apparatus. Subsequently, the scalp was removed and a U-shaped plastic frame required for recording electroencephalography in vivo was attached to the head. Then, a small amount of kainic acid (0.8 nmol, 40 nL) for inducing epilepsy was injected to the dorsal hippocampus (1.6 mm posterior to the bregma, 1.6 mm laterally from the center line, 1.4 mm (depth) from the brain surface) via a micro glass electrode and a metal electrode (diameter 200 μm) for measuring epileptic seizures was embedded in the proximity of the injection site of kainic acid. A reference electrode was installed in the cerebellum. Three weeks after the surgery, epileptic seizures spontaneously generated from the hippocampus were measured to evaluate anti-epilepsy action. Each mouse head was immobilized via a U-shaped frame, brain waves of the hippocampus was recorded through an analog filter of 0.5-30 Hz and digitized by an AD converter at a sampling rate of 1 kHz. After baseline brain wave was measured for one hour, a vehicle or Compound No. 2 was orally administered to each mouse by a disposable sonde, and their brain waves were recorded for further 3 hours. Epileptic seizures were analyzed by Igor Pro (WaveMetrics) and epileptic seizures lasting for 8 seconds or more were counted. Statistical analysis was carried out by SigmaPlot (Systat Software).

[4] = target: human LDH1 (tetramer of LDHB) (Homo sapiens, UniProt P07195); assay: Lactate dehydrogenase inhibitory action, enzymatic reaction plus chromogenic reaction (LDH1); format: biochemical; settings: FIG. 1B, each n=3
Description: (§1) Evaluation of Lactate Dehydrogenase Inhibitory Action (Compounds Nos. 1 to 10, FIGS. 1 to 5):
(§2) Lactate dehydrogenase catalyzes production of lactic acid and NAD from pyruvic acid and NADH. […] In order to evaluate the enzymatic activity of lactate dehydrogenase, experiments were carried out using an evaluation system (Patent Literature 1, Non-Patent Literature 9) consisting of an enzymatic reaction (step 1) and a chromogenic reaction (step 2). In the enzymatic reaction of step 1, sodium pyruvate (100 μM), NADH (100 μM) and lactate dehydrogenase (human LDH1 or LDH5) were added, further an inhibitor (Compounds Nos. 1 to 10) different in concentration was added. The mixture was subjected to a reaction carried out in the presence of a 100 mM sodium phosphate buffer (pH 7.3, 37° C.) for 60 minutes (200 μL/well). In this stage, absorbance of the background at 492 nm was measured by a plate reader (absorbance before chromogenic reaction). […] INT changed into INT formazan by the action of diaphorase in the presence of NADH, and absorbance of INT formazan at 492 nm was measured by a plate reader (absorbance after chromogenic reaction). […] Then, the absorbance before chromogenic reaction was subtracted from the absorbance after chromogenic reaction. The value obtained by the above calculation was regarded as an “absorbance change value (ΔA)”. […]

[5] = target: human LDH5 (tetramer of LDHA) (Homo sapiens, UniProt P00338); assay: Lactate dehydrogenase inhibitory action, enzymatic reaction plus chromogenic reaction (LDH5); format: biochemical; settings: FIG. 1A
Description: as §1, §2

human LDH1 (tetramer of LDHB), sequence (P07195 whole entry): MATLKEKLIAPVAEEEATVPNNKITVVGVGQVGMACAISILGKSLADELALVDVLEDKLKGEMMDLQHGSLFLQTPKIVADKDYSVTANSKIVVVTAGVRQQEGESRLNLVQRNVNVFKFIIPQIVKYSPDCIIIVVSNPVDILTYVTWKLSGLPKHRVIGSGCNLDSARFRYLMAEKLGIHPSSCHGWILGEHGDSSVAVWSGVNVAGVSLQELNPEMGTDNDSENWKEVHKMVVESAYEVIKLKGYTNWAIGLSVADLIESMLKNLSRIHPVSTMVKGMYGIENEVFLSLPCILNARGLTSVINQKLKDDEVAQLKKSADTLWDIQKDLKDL

Row | Structure (SMILES) | solubility in lipid [1] | unchanged compound in the blood after oral administration [2] | in vivo metabolic stability [2] | concentration at which inhibitory activity against LDHA was exerted ([5]; n=3) [µM] | inhibitory action against lactate dehydrogenase (lactate dehydrogenase) | epileptic seizure in the hippocampus ([3]; 150 mg/kg oral, 2.5 hours after administration, FIG. 11B) | number of seizures, dose dependency versus vehicle ([3]; dose of 50 mg/kg oral, 2-3 hours after administration, FIG. 11D, n=11) | number of spontaneous epileptic seizures per hour versus baseline ([3]; oral, one hour after the administration, FIG. 11C, n=10) | inhibitory activity against LDHB (in words) [4] | inhibitory activity against LDHA (in words) ([5]; n=3, compared with compound No. 1 (5 μM))
1 | CC(C)(C)C(O)/C=C/c1ccc2c(c1)OCO2 (centres unmarked) [stiripentol] | – | – | – | – | weak | – | – | – | – | –
2 | O=C(/C=C/c1ccc2c(c1)OCO2)c1ccc(-c2ccccc2)cc1 [Compound No. 1, reference compound] | highly soluble in lipid | quickly disappears | low | 5 | – | – | – | – | almost the same strong inhibitory activity | –

The next lines start with results.

Row | solubility in lipid [1] | unchanged compound in the blood after oral administration [2] | in vivo metabolic stability [2] | concentration at which inhibitory activity against LDHA was exerted ([5]; n=3) [µM] | Structure (SMILES) | inhibitory action against lactate dehydrogenase (lactate dehydrogenase) | epileptic seizure in the hippocampus ([3]; 150 mg/kg oral, 2.5 hours after administration, FIG. 11B) | number of seizures, dose dependency versus vehicle ([3]; dose of 50 mg/kg oral, 2-3 hours after administration, FIG. 11D, n=11) | number of spontaneous epileptic seizures per hour versus baseline ([3]; oral, one hour after the administration, FIG. 11C, n=10) | inhibitory activity against LDHB (in words) [4] | inhibitory activity against LDHA (in words) ([5]; n=3, compared with compound No. 1 (5 μM))
3 | highly soluble in lipid | maintained | high | – | OC(/C=C/c1ccc2c(c1)OCO2)c1ccc(-c2ccccc2)cc1 (centres unmarked) [Compound No. 2] | – | suppressed | significantly decreases | significant decrease | almost the same strong inhibitory activity | exert an inhibitory activity at the same concentration
4 | highly soluble in lipid | maintained | high | – | OC(/C=C/c1ccc2c(c1)OCO2)c1ccc(-c2ccc(F)cc2)cc1 (centres unmarked) [Compound No. 4] | – | – | – | – | – | –
5 | highly soluble in lipid | maintained | high | – | OC(/C=C/c1ccc2c(c1)OCO2)c1ccc(-c2ccccc2)cc1F (centres unmarked) [Compound No. 9] | – | – | – | – | – | –
